This note sets out measurements from patent publication US20050203172A1, “Novel compounds” (priority 2002, published 2005).

Where a name gives a salt, the structure may show the parent alone. A value given as a limit tells only on which side of the number the result lay.

The test system of the assay is human form of induced nitric oxide synthase in DLD-1 cells. Nature of the assay: Screen 3: nitrite accumulation (Griess) in cytokine-induced DLD-1 cells. Type of assay: cell-based. The note with it: DLD-1 cells induced with gamma-IFN, TNF-alpha, IL-6, IL-1-beta, 5 hours with compound, read-out: IC50 (inhibition of nitrite accumulation). How it is done: The human colorectal carcinoma cell line, DLD-1 (obtained from the European Collection of Animal Cell Culture—cell line number 90102540) was routinely grown in RPMI 1640 supplemented with 10% (v/v) foetal bovine serum, and 2 mM L-glutamine, at 37° C. in 5% CO2. Nitric oxide synthase was induced in cells by addition of medium containing human recombinant gamma-IFN (1000 units/ml), TNF-alpha (200 U/ml), IL-6 (200 U/ml) and IL-1-beta (250 U/ml). After incubation for 18 hours at 37° C., the medium was removed and the cells washed with warm phosphate buffered saline. Cells were incubated for a further 5 hours at 37° C./5% CO2 in RPMI 1640 containing 100 μM L-arginine and 100 μM verapamil-HCl in the presence and absence of test compounds. Nitrite accumulation was determined by mixing an equal volume of culture media with Griess reagent (10 mg/ml sulphanilamide, 1 mg N-(1-naphthyl)ethylenediamine in 1 ml 2.5% (v/v) phosphoric acid). Inhibition in the presence of compounds was calculated relative to the nitrite levels produced by untreated cells. IC50 values were estimated from a semi-log plot of % inhibition versus concentration of compound.

Turning to `Cc1cc(S[C@H](C[C@H](N)CO)c2ccccc2)c(C#N)s1` [Example 2, 3-[[(1R,3S)-3-Amino-4-hydroxy-1-phenylbutyl]thio]-5-methyl-2-thiophenecarbonitrile Oxalate], the IC50 was less than 100 µM. For the molecule `N#Cc1sccc1S[C@H](C[C@H](N)CO)c1ccccc1` [Example 1, 3-[[(1R,3S)-3-Amino-4-hydroxy-1-phenylbutyl]thio]-2-thiophenecarbonitrile oxalate], the half-inhibitory concentration (IC50) was less than 100 µM.
